Measured values reported in article PMC11459959, “Discovery of new acetamide derivatives of 5-indole-1,3,4-oxadiazol-2-thiol as inhibitors of HIV-1 Tat-mediated viral transcription” (Antimicrobial Agents and Chemotherapy, 2024).

Assays:
Experiment in all cases: microbe, parasite or virus in culture
Assay type in all cases: cell-based
Settings in all cases: Human immunodeficiency virus 1, TZM-bl
[1] = test system: NNRTI-resistant HIV-1 strain 12243
Method: (§1) Fig 7 (A–C) TZM-bl cells (1 × 10^4 cells/well) cultured in a 96-well plate were treated with fivefold serial dilutions of the indicated compound or ARV for 1 h before infection with the HIV-1NL4-3 or ARV-resistant HIV-1 strains at an MOI of 1, respectively. At 48 h after infection, the EC50 values were determined using an F-Luc activity. The symbols represent the fold-change values of EC50 against each mutant virus relative to the wild-type (WT) virus. (D) PBMCs (5 × 10^4 cells/well) were infected with the HIV-1NL4-3 and PIs-resistant HIV-1 strain at an MOI of 0.1, respectively. Subsequently, the PBMCs were treated with 10-fold serial dilutions of the indicated compounds or PI. At 3 days after infection, the EC50 values on the viral replication were determined using a p24 […] assay kit. (E) The inhibitory kinetics for the WT and ARV-resistant viruses. TZM-bl cells infected with WT or ARV-resistant viruses were cultured upon fivefold serial dilutions of each compound for 2 days and the infectivity was determined using an F-Luc activity.
(§2) The Tzm-bl-derived dual Tat reporter; TZM-bl/Tat/Rluc (bl-DTR) cells were established from TZM-bl cells using two Dox-inducible lentiviral expression cassettes cloned with Flag-tagged Tat86 and the R-Luc gene, as described in our previous study ([11]). TZM-bl, A3.01, J1.1, and J-Lat 6.3 cells as well as the HIV-1 molecular clone pNL4-3, pNL(AD8), ARV-resistant HIV-1 strains, and HIV-1NL43-IRES-eGFP (pBR43IeG-nef^+, gifted by Dr. Frank Kirchhoff) ([52]) were provided by the National Institute of Health HIV Reagent Program (NIH, Bethesda, MD, USA). HeLa (CCL-2) and 293T (CRL-3216) cell lines were purchased from the American Type Culture Collection (ATCC, Manassas, VA, USA). The bl-DTR, TZM-bl, HeLa, and 293T cells were cultured in Dulbecco’s modified Eagle’s medium supplemented with 1% penicillin–streptomycin and 10% (vol/vol) heat-inactivated fetal bovine serum (all from Gibco-BRL, Gaithersburg, MD, USA), and 1 µg/mL of puromycin and 200 µg/mL of zeocin were additionally supplemented for the bl-DTR cells. PBMCs were purchased from AllCells (Alameda, CA, USA) and cultured as previously described ([12]). The information on ARV-resistant HIV-1 strains was described in previous reports as follows: NNRTI-resistant 12241 and 12243 ([53]); NRTI-resistant 7396, 7406, and 7407 ([54]); INSTI-resistant 11847 and 11849 ([55], [56]); and PI-resistant 11800 and 11803 ([57]). Each molecular HIV-1 clone was transfected to 293T cells, as previously described ([58]), to obtain infectious HIV-1 particles. Virus-containing cell culture supernatants were collected 3 days after transfection, and filtered through a 0.45-µm membrane filter (Millipore Sigma, Burlington, MA, USA) to remove cell debris. The viral titration was performed as described previously ([59]) with some minor modifications. In brief, 1 × 10^4 TZM-bl cells seeded in 96-well plates were infected with 200 µL of virus-containing medium diluted serially twofold. The incubation was for 2 days and the experiment was performed in triplicate; the infection time minimized the virus spread ([59]). The titration of the infectious viral particles was performed with a ß-Gal staining assay using the ßeta-Galactosidase Staining Kit (Mirus Bio, Madison, WI, USA) following the manufacturer’s protocols. In brief, the infected cells were washed with phosphate-buffered saline (PBS) and fixed using a Cell Fixative Working solution. The cells were washed with PBS and stained using the Cell Staining Working Solution containing X-gal. The infected blue-colored cells were counted under a microscope (100× magnification). The infectious virus titer was determined as a mean value of blue-colored cells count × dilution factor and used for determining the multiplicity of infection (MOI) in each infection experiment.

[2] = test system: INSTI-resistant HIV-1 strain 11847
Method: as §1, §2

[3] = test system: NNRTI-resistant HIV-1 strain 12241
Method: as §1, §2

[4] = test system: INSTI-resistant HIV-1 strain 11849
Method: as §1, §2

SMILES | EC50 [1] [nM] | EC50 [2] [nM] | EC50 [3] [nM] | EC50 [4] [nM]
Cc1[nH]c2ccc(-c3nnc(SCC(=O)N4CCCCC4)o3)cc2c1C [Compound 9, 2-((5-(2,3-Dimethyl-1H-indol-5-yl)-1,3,4-oxadiazol-2-yl)thio)-1-(piperidin-1-yl)ethan-1-one] | 60 | 70 | 70 | 80 ± 20
C[C@@H]1CCO[C@H]2Cn3cc(C(=O)NCc4ccc(F)cc4F)c(=O)c(O)c3C(=O)N12 [DTG, dolutegravir, reference compound] | – | 10 ± 10 | – | 10
Cc1[nH]c2ccc(-c3nnc(SCC(=O)N4CCCC4)o3)cc2c1C [Compound 13, 2-((5-(2,3-Dimethyl-1H-indol-5-yl)-1,3,4-oxadiazol-2-yl)thio)-1-(pyrrolidin-1-yl)ethan-1-one] | 180 ± 10 | 140 ± 10 | 200 | 230 ± 20
O=C1Nc2ccc(Cl)cc2[C@@](C#CC2CC2)(C(F)(F)F)O1 [EFV, efavirenz, reference compound] | 15500 ± 3390 | – | 4360 ± 80 | –
